ChEMBL document CHEMBL3108715, “Pan-histone demethylase inhibitors simultaneously targeting Jumonji C and lysine-specific demethylases display high anticancer activities” (J Med Chem, 2014)
Calls of active or inactive are those of the source.

Tests used:
Assay type in all cases: functional, cell-based
LNCaP [1] = assay: Antimigratory activity against human LNCAP cells at 50 uM after 72 hrs
LNCaP [2] = assay: Cytotoxicity against human LNCAP cells at 50 uM after 72 hrs
HCT-116 [3] = assay: Antimigratory activity against human HCT116 cells at 50 uM after 72 hrs
HCT-116 [4] = assay: Cytotoxicity against human HCT116 cells at 50 uM after 72 hrs

Measured: Activity

O=C(CCCCCCC(=O)Nc1ccccc1)NO
active: all assays above
